The source of these data is patent US20090312306A1, “TETRAHYDRO-5H-PYRIDO[2,3-D]AZEPINES AS 5-HT2C LIGANDS” (priority 2006, published 2009).

This experiment addresses h5-HT2c (vsv) (Homo sapiens, UniProt P28335, I156V/I160V/N158S). The experiment is described as follows: cell-based.

Sequence of h5-HT2c (vsv) (P28335 33-458 I156V/N158S/I160V limits assumed): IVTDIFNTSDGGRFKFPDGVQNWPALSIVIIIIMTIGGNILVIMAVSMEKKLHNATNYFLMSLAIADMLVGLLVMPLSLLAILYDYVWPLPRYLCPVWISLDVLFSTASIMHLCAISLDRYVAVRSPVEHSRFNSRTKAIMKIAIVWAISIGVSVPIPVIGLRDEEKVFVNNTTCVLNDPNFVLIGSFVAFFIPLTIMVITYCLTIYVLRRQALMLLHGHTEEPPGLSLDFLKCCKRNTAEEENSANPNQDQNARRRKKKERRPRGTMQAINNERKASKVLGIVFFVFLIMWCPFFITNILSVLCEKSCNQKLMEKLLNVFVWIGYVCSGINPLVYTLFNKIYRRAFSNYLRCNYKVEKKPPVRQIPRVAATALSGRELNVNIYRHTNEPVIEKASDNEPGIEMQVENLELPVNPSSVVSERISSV

`C=C(C)c1ccc2c(n1)CCNCC2` had an EC50 of 79.1 nM.

In the case of `CN(C)c1ccc2c(n1)CCNCC2`, a half-maximal effect (EC50) was put at 213 nM.

Regarding `CC(C)c1ccc2c(n1)C(C)CNCC2` (stereo not drawn), the response was half-maximal at 295 nM (EC50).

As to `CCN(C)c1ccc2c(n1)CCNCC2`, a half-maximal response (EC50) required 18 nM.

Molecule `CCN(CC)c1ccc2c(n1)CCNCC2` displayed an EC50 of 77.3 nM.

The molecule `c1cc2c(nc1N1CCCCC1)CCNCC2` came in with an EC50 of 10.6 nM.

As for `c1cc2c(nc1N1CCOCC1)CCNCC2`, the EC50 was 63.9 nM.

For the molecule `COc1nc2c(cc1Br)CCNCC2`, a half-maximal response (EC50) required 64.1 nM.

For `c1cc2c(nc1N1CCCCCC1)CCNCC2`, the response was half-maximal at 10.2 nM (EC50).

With `CC(C)(C)c1ccc2c(n1)CCNCC2`, the response was half-maximal at 106 nM (EC50).

`c1cc2c(nc1N1CCCNCC1)CCNCC2`: a half-maximal effect (EC50) was put at 262 nM.

The molecule `CCN(C)c1nc2c(cc1Br)CCNCC2` came in with a concentration for a half-maximal effect (EC50) of 100 nM.

Turning to `Brc1cc2c(nc1N1CCCCC1)CCNCC2`, the EC50 came to 192 nM.

The molecule `CCN(C)c1ccc2c(n1)C(C)CNCC2` (stereo not drawn) gave an EC50 of 29.2 nM. Compared with the last molecule, the EC50 is about 6.6-fold lower.

In turn, `CC1CNCCc2ccc(N3CCCCC3)nc21` (stereo not drawn) had an EC50 of 13.1 nM.

As to `CC1CNCCc2ccc(N3CCOCC3)nc21` (stereo not drawn), the EC50 is 47.7 nM.

The molecule `c1cc2c(nc1N1CCC3(CC1)OCCO3)CCNCC2` displayed a 50% effective concentration (EC50) of 290 nM.

As to `CC(C)C1CNCCc2ccc(N3CCCCC3)nc21` (stereo not drawn), the EC50 was determined as 65.4 nM.

The molecule `CC(C)C1CNCCc2ccc(N3CCCCCC3)nc21` (stereo not drawn) registered an EC50 of 139 nM.

In turn, `CC1CNCCc2ccc(N3CCCCCC3)nc21` (stereo not drawn) displayed a concentration for a half-maximal effect (EC50) of 6.2 nM.

On to `O=C1CCN(c2ccc3c(n2)CCNCC3)CC1`, for which the half-maximal effective concentration (EC50) was determined as 299 nM.

In the case of `CC(C)N(C)c1ccc2c(n1)CCNCC2`, the EC50 stood at 85.4 nM.

Take `FC1(F)CCN(c2ccc3c(n2)CCNCC3)CC1`: the EC50 turned out to be 11.4 nM.

As for `FC1CCN(c2ccc3c(n2)CCNCC3)CC1`, the EC50 turned out to be 7.9 nM.

Take `c1cc2c(nc1N1CCSCC1)CCNCC2`: the EC50 is 2.3 nM.

With `c1cc2c(nc1N1CCCOCC1)CCNCC2`, the response was half-maximal at 10.5 nM (EC50).

For the molecule `Clc1cc2c(nc1N1CCCCC1)CCNCC2`, a half-maximal response (EC50) required 74.2 nM. Compared with the last molecule, the EC50 is about 7.1-fold higher.

The molecule `Clc1cc2c(nc1N1CCOCC1)CCNCC2` showed an EC50 of 176 nM.

Take `CCC1CNCCc2ccc(N(C)CC)nc21` (stereo not drawn): the EC50 came to 35.9 nM.

`CCC1CNCCc2ccc(N3CCCCC3)nc21` (stereo not drawn) yielded a concentration giving a half-maximal response (EC50) of 16.4 nM.

Molecule `CCC1CNCCc2ccc(N3CCOCC3)nc21` (stereo not drawn) had a concentration for a half-maximal effect (EC50) of 101 nM.

`CCN(C)c1ccc2c(n1)[C@H](C)CNCC2` yielded an EC50 of 8.3 nM.

`C[C@@H]1CNCCc2ccc(N3CCCCC3)nc21` yielded an EC50 of 2.1 nM.

`C[C@@H]1CNCCc2ccc(N3CCOCC3)nc21` displayed an EC50 of 58.1 nM.

The molecule `c1cc2c(nc1N1C3CCCC1CC3)CCNCC2` displayed an EC50 of 138 nM.

`FC1(F)CCCN(c2ccc3c(n2)CCNCC3)CC1` had an EC50 of 24 nM.

The molecule `[O-][S+]1CCN(c2ccc3c(n2)CCNCC3)CC1` showed an EC50 of 5.1 nM. This EC50 lies about 4.7-fold lower than the previous one.

The molecule `CC1CNCCc2ccc(N3CCC(F)(F)CC3)nc21` (stereo not drawn) returned an EC50 of 29.4 nM.

Consider `CC1CNCCc2ccc(N3CCC(F)CC3)nc21` (stereo not drawn), for which a half-maximal response (EC50) required 13.6 nM.

Molecule `CC1CNCCc2ccc(N3CCCOCC3)nc21` (stereo not drawn) displayed an EC50 of 21.7 nM.

In the case of `FC1CCN(c2nc3c(cc2Cl)CCNCC3)CC1`, the EC50 came out at 95.8 nM.

For `Clc1cc2c(nc1N1CCCOCC1)CCNCC2`, the EC50 stood at 67.8 nM.

What is called EC50 is the concentration needed to bring the measured effect to its halfway point. Lower therefore signals greater potency.
